Test results reported in patent US8933230B2, “Phosphorus-containing group-substituted quinoline, its preparation process, medical composition containing the compounds and application” (priority 2011, dated 2015).

Assays:
Assay in all cases: KinomeScan kinase panel
Format in all cases: binding
[1] = molecular target: T1, ABL1(M351T)-phosphorylated (Homo sapiens, UniProt P00519, M351T)
T1 construct: purchased DiscoveRx Corporation (KinomeScan)
Outline: (§1)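 Single-point screen: 1000 nM compound, KinomeScan panel of 442 kinases.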

[2] = molecular target: T2, ADCK4 (Homo sapiens, UniProt Q96D53)
T2 construct: purchased DiscoveRx Corporation (KinomeScan)
Outline: as §1

[3] = molecular target: T3, PCTK1 (Homo sapiens, UniProt Q00536)
T3 construct: purchased DiscoveRx Corporation (KinomeScan panel)
Outline: as §1

[4] = molecular target: T4, BMPR1B (Homo sapiens, UniProt O00238)
T4 construct: purchased DiscoveRx Corporation (KinomeScan)
Outline: as §1

[5] = molecular target: T5, TIE2 (Homo sapiens, UniProt Q02763)
T5 construct: purchased DiscoveRx Corporation (KinomeScan)
Outline: as §1

[6] = molecular target: T6, PCTK3 (Homo sapiens, UniProt Q07002)
T6 construct: purchased DiscoveRx Corporation (KinomeScan panel)
Outline: as §1

[7] = molecular target: T7, LATS1 (Homo sapiens, UniProt O95835)
T7 construct: purchased DiscoveRx Corporation (KinomeScan)
Outline: as §1

[8] = molecular target: T8, MEK1 (Homo sapiens, UniProt Q02750)
T8 construct: purchased DiscoveRx Corporation (KinomeScan)
Outline: as §1

[9] = molecular target: T9, PRKD1 (Homo sapiens, UniProt Q15139)
T9 construct: purchased DiscoveRx Corporation (KinomeScan)
Outline: as §1

[10] = molecular target: T10, MAP3K15 (Homo sapiens, UniProt Q6ZN16)
T10 construct: purchased DiscoveRx Corporation (KinomeScan)
T10 sequence (Q6ZN16 whole entry): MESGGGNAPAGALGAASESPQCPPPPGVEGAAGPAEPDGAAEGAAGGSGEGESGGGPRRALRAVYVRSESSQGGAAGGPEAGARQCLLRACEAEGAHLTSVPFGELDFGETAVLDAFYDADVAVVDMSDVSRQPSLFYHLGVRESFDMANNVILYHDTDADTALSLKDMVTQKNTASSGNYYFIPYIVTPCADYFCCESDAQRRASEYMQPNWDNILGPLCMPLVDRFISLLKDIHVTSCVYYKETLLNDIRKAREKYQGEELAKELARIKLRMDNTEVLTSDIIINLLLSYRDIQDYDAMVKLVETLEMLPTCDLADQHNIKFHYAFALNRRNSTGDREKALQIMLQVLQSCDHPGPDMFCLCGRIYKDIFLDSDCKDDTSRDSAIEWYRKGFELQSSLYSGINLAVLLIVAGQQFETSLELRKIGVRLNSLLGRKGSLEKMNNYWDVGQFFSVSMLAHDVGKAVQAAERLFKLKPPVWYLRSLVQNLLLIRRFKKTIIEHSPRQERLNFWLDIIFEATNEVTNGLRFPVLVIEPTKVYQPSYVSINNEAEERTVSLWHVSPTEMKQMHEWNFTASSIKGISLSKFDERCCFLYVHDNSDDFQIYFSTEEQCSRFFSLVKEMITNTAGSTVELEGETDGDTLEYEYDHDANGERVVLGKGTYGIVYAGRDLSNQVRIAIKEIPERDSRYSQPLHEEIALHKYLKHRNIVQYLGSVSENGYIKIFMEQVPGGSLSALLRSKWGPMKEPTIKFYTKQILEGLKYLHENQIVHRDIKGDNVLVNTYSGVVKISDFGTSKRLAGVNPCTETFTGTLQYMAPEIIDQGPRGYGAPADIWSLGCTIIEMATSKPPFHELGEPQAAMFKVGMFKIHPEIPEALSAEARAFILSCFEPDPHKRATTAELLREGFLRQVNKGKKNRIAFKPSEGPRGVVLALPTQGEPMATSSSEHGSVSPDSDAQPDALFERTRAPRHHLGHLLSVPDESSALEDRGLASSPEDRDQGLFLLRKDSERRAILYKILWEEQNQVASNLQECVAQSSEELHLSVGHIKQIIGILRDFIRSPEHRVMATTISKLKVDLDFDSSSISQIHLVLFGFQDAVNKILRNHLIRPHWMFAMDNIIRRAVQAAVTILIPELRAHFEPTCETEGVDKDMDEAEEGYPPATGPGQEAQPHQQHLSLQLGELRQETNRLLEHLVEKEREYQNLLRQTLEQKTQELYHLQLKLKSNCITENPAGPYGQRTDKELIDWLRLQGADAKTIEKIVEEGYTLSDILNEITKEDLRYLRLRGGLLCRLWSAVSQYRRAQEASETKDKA
Outline: as §1

[11] = molecular target: T11, NEK11 (Homo sapiens, UniProt Q8NG66)
T11 construct: purchased DiscoveRx Corporation (KinomeScan)
Outline: as §1

[12] = molecular target: T12, RPS6KA4(kin.Dom.1-N-termimal) (Homo sapiens, UniProt O75676)
T12 construct: kin.Dom.1; purchased DiscoveRx Corporation
Outline: as §1

[13] = molecular target: T13, CLK4 (Homo sapiens, UniProt Q9HAZ1)
T13 construct: purchased DiscoveRx Corporation (KinomeScan)
Outline: as §1

[14] = molecular target: T14, TRAK (Homo sapiens, UniProt P04629)
T14 construct: purchased DiscoveRx Corporation (KinomeScan)
T14 sequence (P04629 33-796): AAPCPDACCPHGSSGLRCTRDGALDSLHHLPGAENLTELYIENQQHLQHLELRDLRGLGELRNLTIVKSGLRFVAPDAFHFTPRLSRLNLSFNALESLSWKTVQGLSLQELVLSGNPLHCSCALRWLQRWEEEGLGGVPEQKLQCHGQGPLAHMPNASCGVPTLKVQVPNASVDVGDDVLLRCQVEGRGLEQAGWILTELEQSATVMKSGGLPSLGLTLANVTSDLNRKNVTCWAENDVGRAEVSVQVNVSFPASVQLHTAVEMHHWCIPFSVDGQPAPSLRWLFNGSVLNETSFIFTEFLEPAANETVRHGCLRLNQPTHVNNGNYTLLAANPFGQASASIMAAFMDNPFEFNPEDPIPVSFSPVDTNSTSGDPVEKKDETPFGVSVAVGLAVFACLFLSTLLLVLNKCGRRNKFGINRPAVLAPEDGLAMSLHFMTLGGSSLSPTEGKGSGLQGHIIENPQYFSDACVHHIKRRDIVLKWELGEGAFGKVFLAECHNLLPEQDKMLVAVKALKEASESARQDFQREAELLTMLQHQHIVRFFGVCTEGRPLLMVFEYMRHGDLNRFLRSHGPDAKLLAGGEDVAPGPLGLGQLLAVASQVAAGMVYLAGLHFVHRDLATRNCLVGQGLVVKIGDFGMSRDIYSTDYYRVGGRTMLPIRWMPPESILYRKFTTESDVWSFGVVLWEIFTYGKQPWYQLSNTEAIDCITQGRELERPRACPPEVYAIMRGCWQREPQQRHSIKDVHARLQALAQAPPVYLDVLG
Outline: as §1

[15] = molecular target: T15, PAK4 (Homo sapiens, UniProt O96013)
T15 construct: purchased DiscoveRx Corporation (KinomeScan panel)
Outline: as §1

[16] = molecular target: T16, WEE2 (Homo sapiens, UniProt P0C1S8)
T16 construct: purchased DiscoveRx Corporation (KinomeScan service)
Outline: as §1

[17] = molecular target: T17, PIK3CA(E542K) (Homo sapiens, UniProt P42336, E542K)
T17 construct: purchased DiscoveRx Corporation (KinomeScan)
Outline: as §1

[18] = molecular target: T18, ABL1(F317L)-nonphosphorylated (Homo sapiens, UniProt P00519, F317L)
T18 construct: purchased DiscoveRx Corporation (KinomeScan)
Outline: as §1

[19] = molecular target: T19, FLT3 (Homo sapiens, UniProt P36888)
T19 construct: purchased DiscoveRx Corporation (KinomeScan)
Outline: as §1

[20] = molecular target: T20, LZK (Homo sapiens, UniProt O43283)
T20 construct: purchased DiscoveRx Corporation (KinomeScan)
Outline: as §1

[21] = molecular target: T21, IKK-epsilon (Homo sapiens, UniProt Q14164)
T21 construct: purchased DiscoveRx Corporation (KinomeScan)
Outline: as §1

[22] = molecular target: T22, MLK2 (Homo sapiens, UniProt Q02779)
T22 construct: purchased DiscoveRx Corporation (KinomeScan)
Outline: as §1

[23] = molecular target: T23, ROS1 (Homo sapiens, UniProt P08922)
T23 construct: purchased DiscoveRx Corporation
Outline: as §1

[24] = molecular target: T24, ULK2 (Homo sapiens, UniProt Q8IYT8)
T24 construct: purchased DiscoveRx Corporation (KinomeScan service)
T24 sequence (Q8IYT8 whole entry): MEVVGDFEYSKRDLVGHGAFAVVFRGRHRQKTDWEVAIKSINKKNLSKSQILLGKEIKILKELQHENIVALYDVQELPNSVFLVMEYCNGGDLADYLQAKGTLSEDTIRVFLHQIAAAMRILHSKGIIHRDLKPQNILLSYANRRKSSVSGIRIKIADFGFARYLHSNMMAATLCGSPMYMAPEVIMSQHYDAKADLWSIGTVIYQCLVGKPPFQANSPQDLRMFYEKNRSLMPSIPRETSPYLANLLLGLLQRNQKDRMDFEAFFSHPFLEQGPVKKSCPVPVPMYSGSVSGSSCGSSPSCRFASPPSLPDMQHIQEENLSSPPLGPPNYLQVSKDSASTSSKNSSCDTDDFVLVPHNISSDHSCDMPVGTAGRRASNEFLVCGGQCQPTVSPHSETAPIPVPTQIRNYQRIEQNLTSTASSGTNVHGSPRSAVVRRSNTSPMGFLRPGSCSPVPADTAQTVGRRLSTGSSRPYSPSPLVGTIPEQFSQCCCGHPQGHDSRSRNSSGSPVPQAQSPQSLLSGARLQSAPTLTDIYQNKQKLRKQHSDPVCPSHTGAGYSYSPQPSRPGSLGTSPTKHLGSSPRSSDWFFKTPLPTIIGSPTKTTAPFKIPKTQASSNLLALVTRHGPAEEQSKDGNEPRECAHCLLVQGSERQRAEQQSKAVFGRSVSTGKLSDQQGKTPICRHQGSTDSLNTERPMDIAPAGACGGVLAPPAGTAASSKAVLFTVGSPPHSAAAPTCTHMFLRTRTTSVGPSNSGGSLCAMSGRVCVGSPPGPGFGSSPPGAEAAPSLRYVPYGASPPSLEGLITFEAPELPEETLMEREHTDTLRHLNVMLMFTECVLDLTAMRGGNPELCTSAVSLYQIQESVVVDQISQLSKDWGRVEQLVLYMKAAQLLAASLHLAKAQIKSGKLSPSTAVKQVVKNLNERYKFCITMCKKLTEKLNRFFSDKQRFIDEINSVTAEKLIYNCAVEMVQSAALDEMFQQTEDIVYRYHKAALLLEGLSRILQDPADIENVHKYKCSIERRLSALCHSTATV
Outline: as §1

[25] = molecular target: T25, CTK (Homo sapiens, UniProt P42679)
T25 construct: purchased DiscoveRx Corporation (KinomeScan)
T25 sequence (P42679 whole entry): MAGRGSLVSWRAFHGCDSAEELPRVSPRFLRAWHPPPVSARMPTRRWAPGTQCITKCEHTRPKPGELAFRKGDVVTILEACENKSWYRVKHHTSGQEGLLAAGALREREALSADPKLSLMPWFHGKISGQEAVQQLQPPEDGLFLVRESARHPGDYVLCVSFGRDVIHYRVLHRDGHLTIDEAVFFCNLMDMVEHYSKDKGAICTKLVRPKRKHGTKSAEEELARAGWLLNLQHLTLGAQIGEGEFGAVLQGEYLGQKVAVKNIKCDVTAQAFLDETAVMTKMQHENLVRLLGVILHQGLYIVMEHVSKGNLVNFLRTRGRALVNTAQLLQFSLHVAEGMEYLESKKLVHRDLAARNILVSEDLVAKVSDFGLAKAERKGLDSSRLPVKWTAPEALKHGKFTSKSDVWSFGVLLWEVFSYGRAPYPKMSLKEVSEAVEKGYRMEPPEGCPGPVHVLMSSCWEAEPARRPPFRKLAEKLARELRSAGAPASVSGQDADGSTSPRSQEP
Outline: as §1

[26] = molecular target: T26, ABL1(F317I)-nonphosphorylated (Homo sapiens, UniProt P00519, F317I)
T26 construct: purchased DiscoveRx Corporation (KinomeScan)
Outline: as §1

[27] = molecular target: T27, PAK1 (Homo sapiens, UniProt Q13153)
T27 construct: purchased DiscoveRx Corporation (KinomeScan panel)
Outline: as §1

[28] = molecular target: T28, CSNK1G3 (Homo sapiens, UniProt Q9Y6M4)
T28 construct: purchased DiscoveRx Corporation (KinomeScan)
T28 sequence (Q9Y6M4 whole entry): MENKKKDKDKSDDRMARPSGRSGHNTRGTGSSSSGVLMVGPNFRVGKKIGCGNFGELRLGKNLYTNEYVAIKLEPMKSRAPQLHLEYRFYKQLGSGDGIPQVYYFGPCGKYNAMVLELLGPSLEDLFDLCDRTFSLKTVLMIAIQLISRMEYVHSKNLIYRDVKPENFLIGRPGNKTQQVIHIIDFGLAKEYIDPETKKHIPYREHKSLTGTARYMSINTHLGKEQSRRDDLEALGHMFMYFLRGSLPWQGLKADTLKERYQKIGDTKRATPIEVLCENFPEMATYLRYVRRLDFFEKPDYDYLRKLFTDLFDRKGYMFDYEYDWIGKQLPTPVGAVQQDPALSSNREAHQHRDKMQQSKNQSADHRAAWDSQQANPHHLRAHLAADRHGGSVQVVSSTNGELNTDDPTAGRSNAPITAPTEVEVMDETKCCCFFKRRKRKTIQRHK
Outline: as §1

[29] = molecular target: T29, KIT(V559D, T670I) (Homo sapiens, UniProt P10721, T670I/V559D)
T29 construct: purchased DiscoveRx Corporation (KinomeScan)
T29 sequence (P10721 26-976 V559D/T670I): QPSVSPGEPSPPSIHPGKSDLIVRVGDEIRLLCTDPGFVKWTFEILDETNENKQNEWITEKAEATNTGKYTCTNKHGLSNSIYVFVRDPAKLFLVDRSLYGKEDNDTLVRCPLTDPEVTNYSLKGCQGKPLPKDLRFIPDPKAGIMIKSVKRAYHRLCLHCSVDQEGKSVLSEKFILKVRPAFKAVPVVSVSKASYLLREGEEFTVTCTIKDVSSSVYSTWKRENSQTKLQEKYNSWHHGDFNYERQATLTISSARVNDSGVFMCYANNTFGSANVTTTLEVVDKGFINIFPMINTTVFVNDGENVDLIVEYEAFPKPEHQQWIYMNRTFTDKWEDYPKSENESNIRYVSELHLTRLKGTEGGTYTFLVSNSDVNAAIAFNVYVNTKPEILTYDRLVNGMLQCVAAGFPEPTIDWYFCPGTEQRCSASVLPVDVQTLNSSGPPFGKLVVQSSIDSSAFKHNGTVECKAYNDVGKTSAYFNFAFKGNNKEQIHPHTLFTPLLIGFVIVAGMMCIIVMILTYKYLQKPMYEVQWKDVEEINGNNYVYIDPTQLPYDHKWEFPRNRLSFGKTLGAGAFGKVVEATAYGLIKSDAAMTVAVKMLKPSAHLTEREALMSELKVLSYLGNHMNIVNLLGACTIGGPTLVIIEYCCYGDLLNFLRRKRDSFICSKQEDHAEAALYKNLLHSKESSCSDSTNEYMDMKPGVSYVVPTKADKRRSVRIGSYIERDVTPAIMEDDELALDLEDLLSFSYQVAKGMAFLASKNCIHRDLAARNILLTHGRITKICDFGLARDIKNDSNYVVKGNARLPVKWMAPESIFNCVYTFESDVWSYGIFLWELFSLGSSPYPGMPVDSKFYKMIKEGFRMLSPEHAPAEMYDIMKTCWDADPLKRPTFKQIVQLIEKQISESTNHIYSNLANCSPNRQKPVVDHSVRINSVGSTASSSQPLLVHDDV
Outline: as §1

[30] = molecular target: T30, MET (Homo sapiens, UniProt P08581)
T30 construct: purchased DiscoveRx Corporation (KinomeScan)
Outline: as §1

## CCOP(=O)(CN1CCC(COc2cc3nccc(Oc4ccc(NC(=O)C5(C(=O)Nc6ccc(F)cc6)CC5)cc4F)c3cc2OC)CC1)OCC [Example 10, N1-[4-[[7-[[1-(diethoxyphosphorylmethyl)-4-piperidinyl]methoxyl]-6-methoxyl-4-quinolyl]oxyl]-3-fluorophenyl]-N1′-(4-fluorophenyl)cyclopropane-1,1-dicarboxamide]
[1]
  % Ctrl@1000 nM: 42 % Ctrl
[2]
  % Ctrl@1000 nM: 100 % Ctrl
[3]
  % Ctrl@1000 nM: 100 % Ctrl
[4]
  % Ctrl@1000 nM: 100 % Ctrl
[5]
  % Ctrl@1000 nM: 2.4 % Ctrl
[6]
  % Ctrl@1000 nM: 100 % Ctrl
[7]
  % Ctrl@1000 nM: 100 % Ctrl
[8]
  % Ctrl@1000 nM: 24 % Ctrl
[9]
  % Ctrl@1000 nM: 100 % Ctrl
[10]
  % Ctrl@1000 nM: 100 % Ctrl
[11]
  % Ctrl@1000 nM: 100 % Ctrl
[12]
  % Ctrl@1000 nM: 76 % Ctrl
[13]
  % Ctrl@1000 nM: 46 % Ctrl
[14]
  % Ctrl@1000 nM: 1.8 % Ctrl
[15]
  % Ctrl@1000 nM: 100 % Ctrl
[16]
  % Ctrl@1000 nM: 100 % Ctrl
[17]
  % Ctrl@1000 nM: 100 % Ctrl
[18]
  % Ctrl@1000 nM: 10 % Ctrl
[19]
  % Ctrl@1000 nM: 2.3 % Ctrl
[20]
  % Ctrl@1000 nM: 47 % Ctrl
[21]
  % Ctrl@1000 nM: 94 % Ctrl
[22]
  % Ctrl@1000 nM: 78 % Ctrl
[23]
  % Ctrl@1000 nM: 29 % Ctrl
[24]
  % Ctrl@1000 nM: 100 % Ctrl
[25]
  % Ctrl@1000 nM: 100 % Ctrl
[26]
  % Ctrl@1000 nM: 42 % Ctrl
[27]
  % Ctrl@1000 nM: 37 % Ctrl
[28]
  % Ctrl@1000 nM: 100 % Ctrl
[29]
  % Ctrl@1000 nM: 1.4 % Ctrl
[30]
  % Ctrl@1000 nM: 7.7 % Ctrl
